Key:
RA = conditions: 7.5 mg daily, compared with placebo; cited from earlier work
[1] = system: patients with early rheumatoid arthritis; assay: Study J: radiographic joint damage, modified Sharp score; type: in vivo, human
Source text: (§1) The radiographic and clinical data from this 2-year, multi-centre, double-blind, randomised controlled study (Study J) was previously been described in detail (see Breedveld et al. (2006) Arthritis Rheum 54:26-37). The efficacy and safety of adalimumab plus MTX was compared with adalimumab monotherapy and with MTX monotherapy for 799 adult patients with early (<3 years), aggressive RA (mean erosion score of approximately 12 Sharp units, estimated annual TSS progression of approximately 27 Sharp units) who previously had not been treated with MTX, cyclophosphamide, cyclosporine, azathioprin or more than 2 other DMARDs (Breedveld et al. (2006), supra). […] Radiographs from hands and feet were scored according to a modified Sharp score (range 0-398) (Breedveld et al. (2006), supra).

[2] = system: patients with early rheumatoid arthritis; assay: Study J: hand bone mineral density by digital X-ray radiogrammetry (DXR-BMD); type: in vivo, human
Source text: as §1
(§2) Digital X-ray radiogrammetry (DXR) (Sectra, Linkoping, Sweden) was used to measure hand bone mineral density (BMD) and metacarpal cortical index (MCI) on the same digitized hand X-rays used for assessment of radiographic joint damage. DXR is a computer version of the traditional radiogrammetry technique,[13] and have improved the method and its precision substantially. DXR has been described in detail.[14,15,16] On hand radiographs, the computer automatically recognizes regions of interest (ROI) around the narrowest part of the second, third, and fourth metacarpal bone and measures cortical thickness, bone width, and porosity 118 times per cm. DXR-BMD is defined as: c X VPAcomb X (1-p), where c is a constant (determined by the result that DXR-BMD, on average, is equal to the mid-distal forearm region of the Hologic QDR-2000 device); VPA is volume per area; and p is porosity. DXR-MCI is defined as the combined cortical thickness divided by the outer cortical diameter and is a relative bone measure independent of bone size, bone length, and image capture setting.[16.17] Both DXR-BMD and DXR-MCI provide substantial degrees of precision.[17]
For comparison, results for DXR-BMD are also provided. All images of unknown resolution were analyzed by assuming 254 dpi (the scanning resolution for the radiographs before scoring). Several of the radiographs were, however, clearly of a resolution other than 254 dpi, most likely because they had been printed in non-true size before scanning. All available images from baseline were analyzed, as well as 26, 52 and 104 weeks, by DXR-BMD and calculated mean metacarpal width. Based on analyses from other studies with a controlled resolution, [19] a deviation from baseline width greater than 2% was believed to likely indicate an incorrect value. With this 2% value as a cut-off, 23% of the radiographs were excluded from further DXR-BMD analyses. The flow chart in FIG. 1 illustrates the patients who were included in the DXR-MCI and DXR-BMD analyses.
(§3) To avoid bias regarding dominant vs. non-dominant hand and to achieve better accuracy, mean value measurements from both hands were used.[10] If the radiograph from one hand could not be analysed or were missing, the radiograph from the available hand for all analyses at the different time points was used.
(§4) Since the data were not normally distributed, non-parametric analyses were conducted. No imputations were performed. Baseline values were compared between treatment groups with the Kruskall-Wallis method for continuous variables and with the chi-squared method for categorical variables. Comparisons of changes in hand BMD were conducted following methodologies parallel and similar to ones employed in the original Study J. Two groups were compared in a hierarchical order with the Mann-Whitney U test (i.e., two-sided comparison of the combination group vs. MTX, followed by two-sided comparisons between the monotherapy treatment arms, and finally two-sided comparisons between the adalimumab monotherapy and the combination group). Each pair-wise comparison was completed only if the previous comparison was statistically significant. Bone loss over time was expressed as a negative value. […]

[3] = system: early (<3 yrs), active, MTX-naive RA patients; assay: Subanalysis of Study J: DXR-MCI hand bone loss by clinical response (DAS28 subgroups); type: in vivo, human; conditions: for Mean % DXR-MCI change / median % DXR-MCI change: baseline to 52 weeks
Protocol: As described above, Study J compared the efficacy of adalimumab plus MTX vs. MTX alone and adalimumab alone in early (<3 yrs), active, MTX-naive RA patients. The subanalysis described herein involved the MTX monotherapy and the combination therapy groups. Hand bone loss was assessed by digital X-ray radiogrammetry metacarpal cortical index (DXR-MCI), calculated from digitized radiographs (DXR, Sectra, Sweden). […] MCI percentage change from baseline to 52 weeks was evaluated for patients with different clinical response. Disease activity was assessed by DAS28 scores at 52 weeks in 4 subgroups: Remission=DAS28<2.60; Low disease activity=DAS28 2.61-3.20; Moderate disease activity=DAS28 3.21-5.20; and high disease activity=DAS28>5.20. Non-parametric group comparisons were performed.

[4] = system: patients with early rheumatoid arthritis; assay: Study J: cortical hand bone loss by digital X-ray radiogrammetry metacarpal cortical index (DXR-MCI); type: in vivo, human; conditions: for median percentage DXR-MCI change: change from baseline
Protocol: Generally, the study included 768 patients with active RA for <3 years who were naïve to MTX. Clinical data collections and radiographic examinations of hands were performed at baseline, and after 26, 52 and 104 weeks of therapy. Hand bone loss was assessed by digital X-ray radiogrammetry (DXR), primarily as metacarpal cortical index (MCI), on the same radiographs used for joint damage assessments.
as §1, §2
DXR-BMD was intended to be the main outcome measure in this study. However, many radiographs could not be analysed for BMD because of unknown image resolution. Generally, the equation for DXR-BMD is based on volume per area and requires a defined or known resolution, since a distance in a digitised radiograph cannot be measured when the resolution is unknown. Thus, DXR-MCI, which is a relative measure independent of image resolution, was used as the primary outcome measure. […] [19]
as §3
as §4, with “significant.” for “significant. Bone loss over time was expressed as a negative value.”

RA patients = RA patients receiving infliximab; cited from earlier work
[5] = High disease activity (DAS28>5.20)
[6] = Low disease activity (DAS28 2.61-3.20)
[7] = Moderate disease activity (DAS28 3.21-5.20)

| Compound | mean radiographic change in the modified Sharp score ([1]; 26 weeks) | median radiographic change in the modified Sharp score ([1]; 26 weeks) | mean radiographic change in the modified Sharp score ([1]; 52 weeks) | median radiographic change in the modified Sharp score ([1]; 52 weeks) | mean radiographic change in the modified Sharp score ([1]; 104 weeks) | median radiographic change in the modified Sharp score ([1]; 104 weeks) | median DXR-BMD percentage change ([2]; 26 weeks) | median DXR-BMD percentage change ([2]; 52 weeks) | median DXR-BMD percentage change ([2]; 104 weeks) | median percentage DXR-MCI change ([4]; 26 weeks) | median percentage DXR-MCI change ([4]; 52 weeks) | median percentage DXR-MCI change ([4]; 104 weeks) | further results |
| --- | --- | --- | --- | --- | --- | --- | --- | --- | --- | --- | --- | --- | --- |
| C[C@]12C=CC(=O)C=C1CC[C@@H]1[C@@H]2[C@@H](O)C[C@@]2(C)[C@H]1CC[C@]2(O)C(=O)CO [prednisolone] | – | – | – | – | – | – | – | – | – | – | – | – | rate of hand bone loss (in words) (RA): significantly reduce; rate of radiographic joint damage (in words) (RA): significantly reduce |
| CN(Cc1cnc2nc(N)nc(N)c2n1)c1ccc(C(=O)N[C@@H](CCC(=O)O)C(=O)O)cc1 [MTX, methotrexate] | 3.4 units | 1.0 units | 5.1 units | 2.0 units | 6.4 units | 2.0 units | −1.20% | −1.86% | −3.58% | −1.42% | −2.87% | −4.62% | difference in bone loss among remission, low, moderate and high disease activity subgroups (in words) ([3]; 52 weeks): numerical differences; DXR-MCI percentage change ([3]; 52 weeks, pooled subgroup moderate and high disease activity (DAS28)): −4.65%; Mean % DXR-MCI change [3, 5]: −4.64%; median % DXR-MCI change [3, 5]: −3.02%; Mean % DXR-MCI change [3, 6]: −2.98%; median % DXR-MCI change [3, 6]: −2.20%; Mean % DXR-MCI change [3, 7]: −4.65%; median % DXR-MCI change [3, 7]: −3.33%; Mean % DXR-MCI change ([3]; Remission (DAS28<2.60)): −2.99%; median % DXR-MCI change ([3]; Remission (DAS28<2.60)): −2.14% |
| infliximab | – | – | – | – | – | – | – | – | – | – | – | – | bone loss in hip and spine (in words) (RA patients): arrested; hand bone loss (in words) (RA patients): hand bone loss was not halted |
| adalimumab | 2.1 units | 0.5 units | 3.3 units | 0.5 units | 4.8 units | 1.0 units | −0.96% | −1.97% | −2.40% | −1.33% | −2.45% | −4.03% | hand bone loss in relation to clinically assessed disease activity (in words) ([3]; 52 weeks, DAS28 subgroups): reduces hand bone loss independent of clinically assessed disease activity; effect on hand bone loss (in words) ([4]; early RA, Study J): protected against hand bone loss |

From US20100040630A1, “METHODS AND COMPOSITIONS FOR TREATING BONE LOSS” (priority 2008, published 2010)
